Laboratory results taken from ChEMBL document CHEMBL2176918, “Design and optimization of pyrazinecarboxamide-based inhibitors of diacylglycerol acyltransferase 1 (DGAT1) leading to a clinical candidate dimethylpyrazinecarboxamide phenylcyclohexylacetic acid (AZD7687)” (J Med Chem, 2012).
Values after ≈ are worked out from the molar mass of the structure shown.

Tests used:
[1] = Solubility in 0.1 M phosphate buffer at pH 7.4 at 25 degC incubated for 24 hrs
[2] = target: Voltage-gated inwardly rectifying potassium channel KCNH2 (Homo sapiens, UniProt Q12809); assay: Inhibition of human ERG
[3] = Clearance in Beagle dog at 27.2 uM/kg, po or 1.4 uM/kg, iv; assay type: ADME, organism-based, Canis lupus familiaris; details: in vivo
[4] = target: T1, Muscarinic acetylcholine receptor M2 (Homo sapiens, UniProt P08172); assay: Inhibition of muscarinic M2 receptor
T1 sequence (P08172 whole entry): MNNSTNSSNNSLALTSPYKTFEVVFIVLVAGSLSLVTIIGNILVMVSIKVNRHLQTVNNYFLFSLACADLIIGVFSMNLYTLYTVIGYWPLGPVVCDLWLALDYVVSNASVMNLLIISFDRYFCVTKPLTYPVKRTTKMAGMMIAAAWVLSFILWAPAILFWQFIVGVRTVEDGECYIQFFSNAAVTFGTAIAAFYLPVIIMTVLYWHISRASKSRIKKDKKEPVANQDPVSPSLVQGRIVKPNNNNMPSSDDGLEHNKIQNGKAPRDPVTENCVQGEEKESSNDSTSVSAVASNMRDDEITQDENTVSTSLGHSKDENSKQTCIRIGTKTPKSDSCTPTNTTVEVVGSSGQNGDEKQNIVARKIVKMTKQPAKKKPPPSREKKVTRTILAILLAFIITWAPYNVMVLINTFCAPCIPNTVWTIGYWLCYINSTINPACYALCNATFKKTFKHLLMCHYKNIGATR

[5] = Apparent permeability from apical to basolateral side in MDCK cells at pH 7.4; details: dog
O-acyltransferase = target: T2, O-acyltransferase (Canis lupus familiaris, UniProt A0A8I3N393); assay: Inhibition of DGAT1 in dog liver microsomes; parameters: species or system Microsome
T2 sequence (A0A8I3N393 whole entry): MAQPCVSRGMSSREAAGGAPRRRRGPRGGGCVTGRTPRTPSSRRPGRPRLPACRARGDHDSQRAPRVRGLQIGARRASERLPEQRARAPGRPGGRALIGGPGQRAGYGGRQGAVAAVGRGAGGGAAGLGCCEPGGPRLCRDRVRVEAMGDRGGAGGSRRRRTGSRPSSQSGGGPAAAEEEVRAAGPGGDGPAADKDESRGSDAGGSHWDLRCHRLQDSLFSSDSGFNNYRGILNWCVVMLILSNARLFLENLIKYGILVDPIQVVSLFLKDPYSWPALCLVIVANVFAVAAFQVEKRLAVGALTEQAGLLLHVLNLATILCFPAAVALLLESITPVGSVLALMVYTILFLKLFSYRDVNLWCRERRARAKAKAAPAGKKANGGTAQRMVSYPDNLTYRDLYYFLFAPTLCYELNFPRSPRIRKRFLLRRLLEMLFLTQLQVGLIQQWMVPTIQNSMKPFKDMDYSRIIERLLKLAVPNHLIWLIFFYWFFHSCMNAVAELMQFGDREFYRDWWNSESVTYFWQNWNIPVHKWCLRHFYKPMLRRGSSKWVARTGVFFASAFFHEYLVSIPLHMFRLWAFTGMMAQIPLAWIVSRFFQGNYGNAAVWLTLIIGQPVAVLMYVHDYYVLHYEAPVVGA

[6] = Photostability stability by Hanau sun test; assay type: physicochemical
[7] = target: T3, Diacylglycerol O-acyltransferase 1 (Homo sapiens, UniProt O75907)
T3 sequence (O75907 whole entry): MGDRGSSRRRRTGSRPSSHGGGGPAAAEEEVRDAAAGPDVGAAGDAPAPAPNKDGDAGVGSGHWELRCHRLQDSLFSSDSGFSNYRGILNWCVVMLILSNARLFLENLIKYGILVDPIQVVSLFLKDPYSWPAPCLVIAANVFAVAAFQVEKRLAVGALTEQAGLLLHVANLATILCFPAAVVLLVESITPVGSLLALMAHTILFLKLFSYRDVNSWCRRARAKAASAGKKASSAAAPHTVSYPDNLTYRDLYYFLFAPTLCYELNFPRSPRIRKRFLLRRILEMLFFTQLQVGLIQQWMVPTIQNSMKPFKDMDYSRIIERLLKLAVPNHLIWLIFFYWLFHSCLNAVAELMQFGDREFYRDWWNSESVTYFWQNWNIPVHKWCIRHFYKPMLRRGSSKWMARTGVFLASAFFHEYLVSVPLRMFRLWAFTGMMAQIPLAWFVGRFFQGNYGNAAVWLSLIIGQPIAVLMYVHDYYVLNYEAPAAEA
Description: Inhibition of human recombinant DGAT1 expressed in Sf9 cells by liquid scintillography

Cytochrome P450 1A2 = target: T4, Cytochrome P450 1A2 (Homo sapiens, UniProt P05177); assay: Inhibition of CYP1A2; assay type: ADME
T4 sequence (P05177 whole entry): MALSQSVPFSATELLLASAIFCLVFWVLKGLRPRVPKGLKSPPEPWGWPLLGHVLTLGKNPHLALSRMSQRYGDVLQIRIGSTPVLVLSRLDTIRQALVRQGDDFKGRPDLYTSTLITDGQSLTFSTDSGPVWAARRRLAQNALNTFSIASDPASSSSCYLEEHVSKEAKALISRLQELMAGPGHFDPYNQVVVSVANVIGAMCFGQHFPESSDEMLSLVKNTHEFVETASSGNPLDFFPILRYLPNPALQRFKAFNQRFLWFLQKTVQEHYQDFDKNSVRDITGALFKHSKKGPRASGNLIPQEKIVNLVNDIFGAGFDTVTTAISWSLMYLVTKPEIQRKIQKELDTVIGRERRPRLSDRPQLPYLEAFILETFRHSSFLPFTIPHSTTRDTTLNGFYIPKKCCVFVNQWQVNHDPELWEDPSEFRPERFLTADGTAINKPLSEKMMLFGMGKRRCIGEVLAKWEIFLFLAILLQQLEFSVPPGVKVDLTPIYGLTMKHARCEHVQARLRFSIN

[8] = Intrinsic clearance in mouse hepatocytes assessed as parent compound disappearance at 1 uM per 10^6 cells; assay type: ADME, cell-based, Hepatocyte; details: read-out: CLH
[9] = target: T3, Diacylglycerol O-acyltransferase 1; assay: Inhibition of DGAT1 in human liver microsomes; parameters: species or system Microsome
[10] = target: T5, Diacylglycerol O-acyltransferase 2 (Homo sapiens, UniProt Q96PD7); assay: Inhibition of human DGAT2 by liquid scintillography
T5 sequence (Q96PD7 whole entry): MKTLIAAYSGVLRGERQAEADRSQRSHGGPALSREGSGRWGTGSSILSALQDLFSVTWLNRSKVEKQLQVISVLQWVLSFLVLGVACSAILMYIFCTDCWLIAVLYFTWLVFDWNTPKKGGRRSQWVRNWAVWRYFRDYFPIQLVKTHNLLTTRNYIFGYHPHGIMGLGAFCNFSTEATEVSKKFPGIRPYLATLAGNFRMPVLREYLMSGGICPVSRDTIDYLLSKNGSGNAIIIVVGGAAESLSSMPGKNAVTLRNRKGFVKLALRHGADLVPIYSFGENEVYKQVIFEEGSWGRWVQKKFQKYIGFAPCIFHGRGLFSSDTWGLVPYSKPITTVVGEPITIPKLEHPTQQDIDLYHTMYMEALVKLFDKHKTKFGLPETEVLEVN

[11] = Intrinsic clearance in human hepatocytes assessed as parent compound disappearance at 1 uM per 10^6 cells; assay type: ADME, cell-based, Hepatocyte; details: read-out: CLH
[12] = Terminal half life in human at 1 to 20 mg; assay type: ADME, organism-based; details: in vivo, read-out: beta t1/2 (converted)
[13] = Fraction unbound in dog plasma; assay type: ADME, cell-free, Canis lupus familiaris

Sequence of Voltage-gated inwardly rectifying potassium channel KCNH2 (Q12809 whole entry): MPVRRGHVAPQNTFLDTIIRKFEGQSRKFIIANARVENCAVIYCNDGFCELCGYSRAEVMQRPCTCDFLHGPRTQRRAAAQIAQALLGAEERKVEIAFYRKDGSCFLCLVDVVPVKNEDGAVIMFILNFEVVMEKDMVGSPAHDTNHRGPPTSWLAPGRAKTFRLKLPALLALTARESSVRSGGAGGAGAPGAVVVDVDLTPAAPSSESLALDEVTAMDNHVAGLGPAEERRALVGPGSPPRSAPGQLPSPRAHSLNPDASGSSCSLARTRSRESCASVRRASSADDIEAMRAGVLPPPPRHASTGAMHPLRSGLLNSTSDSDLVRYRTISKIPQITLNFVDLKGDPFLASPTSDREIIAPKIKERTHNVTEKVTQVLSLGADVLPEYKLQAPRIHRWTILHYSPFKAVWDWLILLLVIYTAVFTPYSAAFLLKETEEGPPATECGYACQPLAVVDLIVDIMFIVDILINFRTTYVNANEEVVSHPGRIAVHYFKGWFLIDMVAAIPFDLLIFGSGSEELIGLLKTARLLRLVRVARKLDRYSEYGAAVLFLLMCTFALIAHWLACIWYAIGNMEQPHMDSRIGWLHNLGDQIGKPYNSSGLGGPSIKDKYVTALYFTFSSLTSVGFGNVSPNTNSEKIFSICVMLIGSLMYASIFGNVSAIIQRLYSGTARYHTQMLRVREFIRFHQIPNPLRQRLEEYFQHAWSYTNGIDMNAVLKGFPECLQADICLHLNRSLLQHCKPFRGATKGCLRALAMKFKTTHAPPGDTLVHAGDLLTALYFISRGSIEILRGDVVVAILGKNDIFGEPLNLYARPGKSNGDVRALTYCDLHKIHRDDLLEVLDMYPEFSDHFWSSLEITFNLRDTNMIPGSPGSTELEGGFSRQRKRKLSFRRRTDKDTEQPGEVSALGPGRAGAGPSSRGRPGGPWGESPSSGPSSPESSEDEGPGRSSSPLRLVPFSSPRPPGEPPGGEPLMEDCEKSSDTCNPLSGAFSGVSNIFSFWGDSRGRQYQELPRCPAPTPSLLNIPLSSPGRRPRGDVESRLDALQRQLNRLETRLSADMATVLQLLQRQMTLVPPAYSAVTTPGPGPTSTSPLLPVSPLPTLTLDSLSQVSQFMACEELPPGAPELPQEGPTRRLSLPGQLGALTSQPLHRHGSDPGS

solubility at 24 h [1]: 700 µM (≈ 257 µg/mL) | clearance [3]: 1.2 mL/min/kg | IC50 [4]: 80500 nM | Papp A→B [5]: 12 ×10⁻⁶ cm/s | IC50 (O-acyltransferase): 60 nM | half-life [6]: 7.6 h | IC50 [7]: 80 nM | IC50 (Cytochrome P450 1A2): > 30000 nM | hepatocyte CLint at 1 µM [8]: 7.3 µL/min/1e6 cells | IC50 [9]: 70 nM | IC50 [10]: > 300000 nM | hepatocyte CLint at 1 µM [11]: < 2 µL/min/1e6 cells | half-life [12]: 9 h | fraction unbound [13]: 0.06
Compound: Cc1nc(C)c(-c2ccc(C3CCC(CC(=O)O)CC3)cc2)nc1C(N)=O (stereo not given) [AZD-7687]
IC50 [2]: > 32000 nM
